Laboratory results taken from the NIST ThermoML archive (doi:10.1016/j.jct.2017.08.004).

Assay: molar heat capacity at constant pressure
Conditions: 101.33 kPa, Crystal

O[C@H]1[C@H](O)[C@@H](O)[C@H](O)[C@@H](O)[C@H]1O [cis-1,2,3,5-trans-4,6-cyclohexanehexol]
molar heat capacity at constant pressure [J/K/mol]
Conditions | Small sample (50 mg) DSC | relaxation calorimetry
1 K | – | 0.00189
1.926 K | – | 0.009609
2 K | – | 0.0108
2.127 K | – | 0.01292
2.354 K | – | 0.01758
2.61 K | – | 0.02281
2.904 K | – | 0.03148
3 K | – | 0.03479
3.219 K | – | 0.04281
3.569 K | – | 0.0586
3.959 K | – | 0.08072
4 K | – | 0.08367
4.391 K | – | 0.1121
4.872 K | – | 0.1562
5 K | – | 0.1693
5.405 K | – | 0.2182
5.998 K | – | 0.3056
6 K | – | 0.3048
6.654 K | – | 0.4273
7 K | – | 0.5031
7.388 K | – | 0.5992
8 K | – | 0.7731
8.198 K | – | 0.8347
9 K | – | 1.113
9.101 K | – | 1.15
10 K | – | 1.523
10.15 K | – | 1.591
11.25 K | – | 2.131
12.48 K | – | 2.827
13.85 K | – | 3.674
15 K | – | 4.447
15.39 K | – | 4.714
17.07 K | – | 5.945
18.96 K | – | 7.393
20 K | – | 8.193
21.04 K | – | 8.992
23.37 K | – | 10.83
25 K | – | 12.09
25.95 K | – | 12.77
28.81 K | – | 14.98
30 K | – | 15.9
32 K | – | 17.42
35 K | – | 19.73
35.5 K | – | 20.13
39.37 K | – | 23.3
40 K | – | 23.68
43.71 K | – | 26.66
45 K | – | 27.69
48.5 K | – | 30.26
50 K | – | 31.58
53.84 K | – | 34.36
55 K | – | 35.27
59.75 K | – | 39.03
60 K | – | 39.12
65 K | – | 43.04
66.32 K | – | 44.21
70 K | – | 47.02
73.64 K | – | 49.9
75 K | – | 51.04
80 K | – | 55.09
81.73 K | – | 56.7
85 K | – | 59.15
90 K | – | 63.21
90.71 K | – | 63.72
95 K | – | 67.25
100 K | – | 71.28
100.66 K | – | 71.12
110 K | – | 79.22
110.79 K | – | 79.63
120 K | – | 87.03
120.83 K | – | 87.98
130 K | – | 94.69
130.89 K | – | 95.77
140 K | – | 102.22
141.02 K | – | 103.28
150 K | – | 109.64
151.12 K | – | 110.61
160 K | – | 116.97
161.24 K | – | 117.92
170 K | – | 124.22
171.29 K | – | 125.13
180 K | – | 131.43
181.39 K | – | 132.46
188.15 K | 132.1 | –
189.15 K | 133.01 | –
190 K | – | 138.61
190.15 K | 134.04 | –
191.15 K | 134.87 | –
191.48 K | – | 139.61
192.15 K | 135.65 | –
193.15 K | 136.44 | –
194.15 K | 137.52 | –
195.15 K | 138.44 | –
196.15 K | 139.45 | –
197.15 K | 140.42 | –
198.15 K | 141.25 | –
199.15 K | 142.04 | –
200 K | – | 145.78
200.15 K | 142.99 | –
201.15 K | 143.81 | –
201.58 K | – | 146.36
202.15 K | 144.76 | –
203.15 K | 145.49 | –
204.15 K | 146.25 | –
205.15 K | 147.12 | –
206.15 K | 147.9 | –
207.15 K | 148.76 | –
208.15 K | 149.37 | –
209.15 K | 150.17 | –
210 K | – | 152.96
210.15 K | 150.93 | –
211.15 K | 151.82 | –
211.7 K | – | 153.74
212.15 K | 152.59 | –
213.15 K | 153.21 | –
214.15 K | 154.05 | –
215.15 K | 154.79 | –
216.15 K | 155.5 | –
217.15 K | 156.37 | –
218.15 K | 157.24 | –
219.15 K | 158 | –
220 K | – | 160.15
220.15 K | 158.66 | –
221.15 K | 159.51 | –
221.79 K | – | 161.31
222.15 K | 160.36 | –
223.15 K | 161.11 | –
224.15 K | 161.84 | –
225.15 K | 162.58 | –
226.15 K | 163.3 | –
227.15 K | 164.03 | –
228.15 K | 164.76 | –
229.15 K | 165.48 | –
230 K | – | 167.37
230.15 K | 166.09 | –
231.15 K | 166.87 | –
231.88 K | – | 168.69
232.15 K | 167.66 | –
233.15 K | 168.47 | –
234.15 K | 169.23 | –
235.15 K | 169.98 | –
236.15 K | 170.76 | –
237.15 K | 171.54 | –
238.15 K | 172.36 | –
239.15 K | 173.06 | –
240 K | – | 174.63
240.15 K | 173.81 | –
241.15 K | 174.61 | –
241.96 K | – | 176.25
242.15 K | 175.4 | –
243.15 K | 176.08 | –
244.15 K | 176.84 | –
245.15 K | 177.49 | –
246.15 K | 178.19 | –
247.15 K | 178.89 | –
248.15 K | 179.65 | –
249.15 K | 180.32 | –
250 K | – | 181.94
250.15 K | 181.03 | –
251.15 K | 181.9 | –
251.99 K | – | 183.44
252.15 K | 182.55 | –
253.15 K | 183.36 | –
254.15 K | 184.08 | –
255.15 K | 184.96 | –
256.15 K | 185.78 | –
257.15 K | 186.45 | –
258.15 K | 187.25 | –
259.15 K | 188.05 | –
260 K | – | 189.3
260.15 K | 188.81 | –
261.15 K | 189.58 | –
262.11 K | – | 191.23
262.15 K | 190.24 | –
263.15 K | 191.02 | –
264.15 K | 191.84 | –
265.15 K | 192.51 | –
266.15 K | 193.18 | –
267.15 K | 194.11 | –
268.15 K | 194.88 | –
269.15 K | 195.58 | –
270 K | – | 196.73
270.15 K | 196.44 | –
271.15 K | 197.16 | –
272.15 K | 197.91 | –
272.17 K | – | 198.87
273.15 K | 198.7 | 199.08
274.15 K | 199.42 | –
275.15 K | 200.19 | –
276.15 K | 201.09 | –
277.15 K | 201.63 | –
278.15 K | 202.4 | –
279.15 K | 203.19 | –
280 K | – | 204.22
280.15 K | 203.91 | –
281.15 K | 204.75 | –
282.15 K | 205.45 | –
282.18 K | – | 206.06
283.15 K | 206.13 | –
284.15 K | 206.78 | –
285.15 K | 207.67 | –
286.15 K | 208.29 | –
287.15 K | 208.96 | –
288.15 K | 209.73 | –
289.15 K | 210.44 | –
290 K | – | 211.78
290.15 K | 211.29 | –
291.15 K | 212.09 | –
292.15 K | 212.8 | –
292.29 K | – | 213.34
293.15 K | 213.54 | –
294.15 K | 214.44 | –
295.15 K | 215.31 | –
296.15 K | 216.01 | –
297.15 K | 216.77 | –
298.15 K | 217.6 | 218
299.15 K | 218.39 | –
300 K | – | 219.42
300.15 K | 219.12 | –
301.15 K | 219.99 | –
302.15 K | 220.81 | –
302.4 K | – | 220.86
303.15 K | 221.72 | –
304.15 K | 222.56 | –
305 K | 223.54 | –
305.15 K | 223.48 | –
306.15 K | 224.53 | –
307.15 K | 225.41 | –
308.15 K | 226.47 | –
309.15 K | 227.45 | –
310 K | 228.25 | –
310.15 K | 228.42 | –
311.15 K | 229.32 | –
312.15 K | 230.3 | –
313.15 K | 231.18 | –
314.15 K | 232.03 | –
315 K | 232.85 | –
